# Measured values published in patent publication US20250262214A1, “INTERMITTENT DOSING REGIMEN FOR AZENOSERTIB IN TREATING CANCER” (Zeno Management, Inc., priority 2022, published 2025).
# System: MDA-MB-468 triple negative breast cancer tumor model
# Experiment: MDA-MB-468 triple negative breast cancer tumor model, tumor growth inhibition
# Assay type: in vivo
# Conditions: niraparib single agent, 50 mg/kg
# Procedure: In vivo exploration of dose and schedule of Azenosertib and PARPi (niraparib, talazoparib) including exploration of alternating dosing was evaluated.
smiles,measurement,value
"NC(=O)c1cccc2cn(-c3ccc([C@@H]4CCCNC4)cc3)nc12 [niraparib, reference compound]",tumor growth inhibition (TGI),47.7%
